Experimental data reported in patent EP4603105A1, “PHARMACEUTICAL COMPOSITION CONTAINING CYCLIC COMPOUND HAVING SELECTIVE KRAS INHIBITORY EFFECT AGAINST HRAS AND NRAS” (CHUGAI SEIYAKU KABUSHIKI KAISHA, priority 2022, dated 2024).
pIC50: −log10 of the molar value. Where a SMILES comes first, the peptide text is derived from it. Bridges are numbered along the chain shown (N, C = ends). [ ]: non-standard residue; d: D form. hPhe(3-Cl-4-CF3) = N[C@@H](CCc1ccc(C(F)(F)F)c(Cl)c1)C(=O)O; NPrPhe(4-CF3) = CCCN[C@@H](Cc1ccc(C(F)(F)F)cc1)C(=O)O; NMeGly(cPent) = CN[C@H](C(=O)O)C1CCCC1; Pro(4,4-F2) = O=C(O)[C@@H]1CC(F)(F)CN1; Hyp = O=C(O)[C@@H]1C[C@@H](O)CN1; NMeL = CN[C@@H](CC(C)C)C(=O)O; Ac5c = NC1(C(=O)O)CCCC1; Ac4c = NC1(C(=O)O)CCC1; NEtG = CCNCC(=O)O; Sar = CNCC(=O)O

Experiments:
[1] = tested on: human lung cancer strain NCI-H441; assay type: cell-based
Procedure, shortened: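 Step one: dispense the test compound in serial DMSO dilutions. Step three: add the reagent and measure […].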

[2] = target: GDP-bound NRAS wild-type protein (Homo sapiens, UniProt P01111); assay: Binding to NRAS by surface plasmon resonance (SPR), KD and KD ratio to KRAS; details: ratio of KD for GDP-bound NRAS wild-type protein to KD for KRAS
Chain of GDP-bound NRAS wild-type protein (P01111 whole entry): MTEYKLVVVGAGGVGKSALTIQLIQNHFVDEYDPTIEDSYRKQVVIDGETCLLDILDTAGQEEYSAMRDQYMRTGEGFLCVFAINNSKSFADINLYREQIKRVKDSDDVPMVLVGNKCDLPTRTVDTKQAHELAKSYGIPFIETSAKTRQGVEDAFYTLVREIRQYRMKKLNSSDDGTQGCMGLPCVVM
Procedure, shortened: (§1)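 Running buffer contained 10 µM GDP and 10 mM MgCl2 to keep RAS in the GDP state, with 4% DMSO at pH 7.4. Compounds were flowed at 100 µL/min in 75 s steps of rising concentration over captured biotin-Avi RAS at 30°C. Sensorgrams were fitted 1:1 for KD.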

[3] = target: HRAS wild-type protein (Homo sapiens, UniProt P01112); assay: Binding to HRAS by surface plasmon resonance (SPR), KD and KD ratio to KRAS; details: ratio of KD for HRAS wild-type protein to KD for KRAS
Chain of HRAS wild-type protein (P01112 whole entry): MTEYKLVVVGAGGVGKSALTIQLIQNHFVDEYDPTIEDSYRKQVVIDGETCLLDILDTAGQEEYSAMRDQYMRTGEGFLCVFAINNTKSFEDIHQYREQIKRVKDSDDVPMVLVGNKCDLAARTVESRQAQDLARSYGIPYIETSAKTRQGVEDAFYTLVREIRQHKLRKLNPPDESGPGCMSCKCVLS
Procedure, shortened: as §1

Compound | pIC50 [1] | NRAS /KRAS [2] | HRAS /KRAS [3]
CCCN1C(=O)CN(C)C(=O)CN(C)C(=O)[C@H]([C@@H](C)CC)NC(=O)[C@H](CC(C)C)N(C)C(=O)C[C@@H](C(=O)N(C)C)NC(=O)[C@H](C2CCCC2)N(C)C(=O)C2(CCC2)NC(=O)[C@@H]2C[C@@H](OCC)CN2C(=O)[C@H](CCc2ccc(C(F)(F)F)c(Cl)c2)NC(=O)CN(C)C(=O)[C@@H]1Cc1ccc(C(F)(F)F)cc1 [PP0360] ([NMeL]I[Sar][Sar][NPrPhe(4-CF3)][Sar][hPhe(3-Cl-4-CF3)][Hyp](Et)[Ac4c][NMeGly(cPent)]D-NMe2; lactam N-11) | 7.74 | B (a compound having 3 or more and less than 10 is denoted as B) | C (A compound having a KD ratio of 0.1 or more and less than 3 is denoted as C)
CCCN1C(=O)CN(C)C(=O)CNC(=O)[C@H]([C@@H](C)CC)NC(=O)[C@H](CC(C)C)N(C)C(=O)C[C@@H](C(=O)N(C)C)NC(=O)[C@H](C2CCCC2)N(C)C(=O)C2(CCCC2)NC(=O)[C@@H]2CCCN2C(=O)[C@H](CCc2ccc(C(F)(F)F)c(Cl)c2)NC(=O)CN(C)C(=O)[C@@H]1Cc1ccc(C(F)(F)F)cc1 [PP0361] ([NMeL]IG[Sar][NPrPhe(4-CF3)][Sar][hPhe(3-Cl-4-CF3)]P[Ac5c][NMeGly(cPent)]D-NMe2; lactam N-11) | 7.16 | B (a compound having 3 or more and less than 10 is denoted as B) | C (A compound having a KD ratio of 0.1 or more and less than 3 is denoted as C)
CCCN1C(=O)CN(C)C(=O)CNC(=O)[C@H]([C@@H](C)CC)NC(=O)[C@H](CC(C)C)N(C)C(=O)C[C@@H](C(=O)N(C)C)NC(=O)[C@H](C2CCCC2)N(C)C(=O)C2(CCC2)NC(=O)[C@@H]2CCCN2C(=O)[C@H](CCc2ccc(C(F)(F)F)c(Cl)c2)NC(=O)CN(C)C(=O)[C@@H]1Cc1ccc(C(F)(F)F)cc1 [PP0362] ([NMeL]IG[Sar][NPrPhe(4-CF3)][Sar][hPhe(3-Cl-4-CF3)]P[Ac4c][NMeGly(cPent)]D-NMe2; lactam N-11) | 6.83 | B (a compound having 3 or more and less than 10 is denoted as B) | B (a compound having 3 or more and less than 10 is denoted as B)
CCCN1C(=O)CN(C)C(=O)CNC(=O)[C@H]([C@@H](C)CC)NC(=O)[C@H](CC(C)C)N(C)C(=O)C[C@@H](C(=O)N(C)C)NC(=O)[C@H](C2CCCC2)N(C)C(=O)C2(CCCC2)NC(=O)[C@@H]2CC(F)(F)CN2C(=O)[C@H](CCc2ccc(C(F)(F)F)c(Cl)c2)NC(=O)CN(C)C(=O)[C@@H]1Cc1ccc(C(F)(F)F)cc1 [PP0363] ([NMeL]IG[Sar][NPrPhe(4-CF3)][Sar][hPhe(3-Cl-4-CF3)][Pro(4,4-F2)][Ac5c][NMeGly(cPent)]D-NMe2; lactam N-11) | 7.04 | B (a compound having 3 or more and less than 10 is denoted as B) | C (A compound having a KD ratio of 0.1 or more and less than 3 is denoted as C)
CCCN1C(=O)CN(C)C(=O)CNC(=O)[C@H]([C@@H](C)CC)NC(=O)[C@H](CC(C)C)N(C)C(=O)C[C@@H](C(=O)N(C)C)NC(=O)[C@H](C2CCCC2)N(C)C(=O)C2(CCC2)NC(=O)[C@@H]2CC(F)(F)CN2C(=O)[C@H](CCc2ccc(C(F)(F)F)c(Cl)c2)NC(=O)CN(C)C(=O)[C@@H]1Cc1ccc(C(F)(F)F)cc1 [PP0364] ([NMeL]IG[Sar][NPrPhe(4-CF3)][Sar][hPhe(3-Cl-4-CF3)][Pro(4,4-F2)][Ac4c][NMeGly(cPent)]D-NMe2; lactam N-11) | 6.99 | B (a compound having 3 or more and less than 10 is denoted as B) | B (a compound having 3 or more and less than 10 is denoted as B)
CCCN1C(=O)CN(C)C(=O)CNC(=O)[C@H]([C@@H](C)CC)NC(=O)[C@H](CC(C)C)N(C)C(=O)C[C@@H](C(=O)N(C)C)NC(=O)[C@H](C2CCCC2)N(C)C(=O)C2(CCCC2)NC(=O)[C@@H]2C[C@@H](OCC)CN2C(=O)[C@H](CCc2ccc(C(F)(F)F)c(Cl)c2)NC(=O)CN(C)C(=O)[C@@H]1Cc1ccc(C(F)(F)F)cc1 [PP0365] ([NMeL]IG[Sar][NPrPhe(4-CF3)][Sar][hPhe(3-Cl-4-CF3)][Hyp](Et)[Ac5c][NMeGly(cPent)]D-NMe2; lactam N-11) | 7.37 | B (a compound having 3 or more and less than 10 is denoted as B) | B (a compound having 3 or more and less than 10 is denoted as B)
CCCN1C(=O)CN(C)C(=O)CNC(=O)[C@H]([C@@H](C)CC)NC(=O)[C@H](CC(C)C)N(C)C(=O)C[C@@H](C(=O)N(C)C)NC(=O)[C@H](C2CCCC2)N(C)C(=O)C2(CCC2)NC(=O)[C@@H]2C[C@@H](OCC)CN2C(=O)[C@H](CCc2ccc(C(F)(F)F)c(Cl)c2)NC(=O)CN(C)C(=O)[C@@H]1Cc1ccc(C(F)(F)F)cc1 [PP0366] ([NMeL]IG[Sar][NPrPhe(4-CF3)][Sar][hPhe(3-Cl-4-CF3)][Hyp](Et)[Ac4c][NMeGly(cPent)]D-NMe2; lactam N-11) | 7.10 | B (a compound having 3 or more and less than 10 is denoted as B) | B (a compound having 3 or more and less than 10 is denoted as B)

Second part, led by results:

pIC50 [1] | Compound | NRAS /KRAS [2] | HRAS /KRAS [3]
7.00 | CCCN1C(=O)CN(C)C(=O)CN(CC)C(=O)[C@H]([C@@H](C)CC)NC(=O)[C@H](CC(C)C)N(C)C(=O)C[C@@H](C(=O)N(C)C)NC(=O)[C@H](C2CCCC2)N(C)C(=O)C2(CCCC2)NC(=O)[C@@H]2CCCN2C(=O)[C@H](CCc2ccc(C(F)(F)F)c(Cl)c2)NC(=O)CN(C)C(=O)[C@@H]1Cc1ccc(C(F)(F)F)cc1 [PP0367] ([NMeL]I[NEtG][Sar][NPrPhe(4-CF3)][Sar][hPhe(3-Cl-4-CF3)]P[Ac5c][NMeGly(cPent)]D-NMe2; lactam N-11) | B (a compound having 3 or more and less than 10 is denoted as B) | B (a compound having 3 or more and less than 10 is denoted as B)
6.94 | CCCN1C(=O)CN(C)C(=O)CN(CC)C(=O)[C@H]([C@@H](C)CC)NC(=O)[C@H](CC(C)C)N(C)C(=O)C[C@@H](C(=O)N(C)C)NC(=O)[C@H](C2CCCC2)N(C)C(=O)C2(CCC2)NC(=O)[C@@H]2CCCN2C(=O)[C@H](CCc2ccc(C(F)(F)F)c(Cl)c2)NC(=O)CN(C)C(=O)[C@@H]1Cc1ccc(C(F)(F)F)cc1 [PP0368] ([NMeL]I[NEtG][Sar][NPrPhe(4-CF3)][Sar][hPhe(3-Cl-4-CF3)]P[Ac4c][NMeGly(cPent)]D-NMe2; lactam N-11) | B (a compound having 3 or more and less than 10 is denoted as B) | B (a compound having 3 or more and less than 10 is denoted as B)
7.16 | CCCN1C(=O)CN(C)C(=O)CN(CC)C(=O)[C@H]([C@@H](C)CC)NC(=O)[C@H](CC(C)C)N(C)C(=O)C[C@@H](C(=O)N(C)C)NC(=O)[C@H](C2CCCC2)N(C)C(=O)C2(CCCC2)NC(=O)[C@@H]2CC(F)(F)CN2C(=O)[C@H](CCc2ccc(C(F)(F)F)c(Cl)c2)NC(=O)CN(C)C(=O)[C@@H]1Cc1ccc(C(F)(F)F)cc1 [PP0369] ([NMeL]I[NEtG][Sar][NPrPhe(4-CF3)][Sar][hPhe(3-Cl-4-CF3)][Pro(4,4-F2)][Ac5c][NMeGly(cPent)]D-NMe2; lactam N-11) | B (a compound having 3 or more and less than 10 is denoted as B) | C (A compound having a KD ratio of 0.1 or more and less than 3 is denoted as C)
7.20 | CCCN1C(=O)CN(C)C(=O)CN(CC)C(=O)[C@H]([C@@H](C)CC)NC(=O)[C@H](CC(C)C)N(C)C(=O)C[C@@H](C(=O)N(C)C)NC(=O)[C@H](C2CCCC2)N(C)C(=O)C2(CCC2)NC(=O)[C@@H]2CC(F)(F)CN2C(=O)[C@H](CCc2ccc(C(F)(F)F)c(Cl)c2)NC(=O)CN(C)C(=O)[C@@H]1Cc1ccc(C(F)(F)F)cc1 [PP0370] ([NMeL]I[NEtG][Sar][NPrPhe(4-CF3)][Sar][hPhe(3-Cl-4-CF3)][Pro(4,4-F2)][Ac4c][NMeGly(cPent)]D-NMe2; lactam N-11) | B (a compound having 3 or more and less than 10 is denoted as B) | C (A compound having a KD ratio of 0.1 or more and less than 3 is denoted as C)
7.51 | CCCN1C(=O)CN(C)C(=O)CN(CC)C(=O)[C@H]([C@@H](C)CC)NC(=O)[C@H](CC(C)C)N(C)C(=O)C[C@@H](C(=O)N(C)C)NC(=O)[C@H](C2CCCC2)N(C)C(=O)C2(CCCC2)NC(=O)[C@@H]2C[C@@H](OCC)CN2C(=O)[C@H](CCc2ccc(C(F)(F)F)c(Cl)c2)NC(=O)CN(C)C(=O)[C@@H]1Cc1ccc(C(F)(F)F)cc1 [PP0371] ([NMeL]I[NEtG][Sar][NPrPhe(4-CF3)][Sar][hPhe(3-Cl-4-CF3)][Hyp](Et)[Ac5c][NMeGly(cPent)]D-NMe2; lactam N-11) | B (a compound having 3 or more and less than 10 is denoted as B) | C (A compound having a KD ratio of 0.1 or more and less than 3 is denoted as C)
